What was measured:
Assay in all cases: whole plant or invertebrate
Format in all cases: in vivo
[1] = test system: potato leafhopper (Empoasca fabae Harris); settings: alone
In short: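 Contact and/or systemic test: five adult leafhoppers aged 18–21 days were released onto Longio bean plants 1 h after spraying. The spray was 1 mL per unit in acetone/water (10:90) with 300 ppm non-ionic surfactant, run in triplicate. Plants were kept 6 days in a growth chamber at 19–21 °C and 50–70% humidity.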

[2] = test system: green peach aphid (Myzus persicae Sulzer); settings: Green Peach Aphid
In short: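 Compounds formulated in 10% acetone/water with 300 ppm X-77 surfactant were atomized onto aphid-infested radish seedlings, with three replicates per treatment. Infestation was 30–40 aphids transferred on excised leaf pieces, covering contact and systemic exposure. Test units stayed 6 days in a growth chamber at 19–21 °C and 50–70% relative humidity.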

[3] = test system: diamondback moth (Plutella xylostella)
Method: The test compounds were dissolved in water. […] Serial dilutions were made to obtain the appropriate concentrations. To obtain the desired mixture concentrations of each compound, twice the desired concentration of each of the two mixture partner compounds were mixed together in equal volumes.
The diluted solutions of the test compounds were sprayed to run-off on three-week-old tomato plants. The plants were placed on a rotating turntable sprayer (10 rpm). Test solutions were applied using a flat fan air-assisted nozzle (Spraying Systems 122440) at 10 psi (69 kPa). […] The leaves were cut into pieces, which were placed singly into 5.5 cm-by-3.5 cm cells of a sixteen-cell plastic tray. Each cell contained a 2.5-cm square of moistened chromatography paper to prevent desiccation. One insect was placed in each cell. There two trays per treatment. Trays were held in the growth chamber at 25° C., 16-hour light:8-hour dark, 60% relative humidity for 4 days.
For evaluating control of diamondback moth (Plutella xylostella), cabbage (var. Stonehead) plants were grown in Metromix potting soil in 10-cm pots in aluminum trays to test size (28 days, 3-4 full leaves) the plants were sprayed to the point of runoff using the turntable sprayer as described in Test I. Test compounds were formulated and sprayed on test plants as described for Test I. After drying for 2 hours, the treated leaves were excised and infested with one cabbage looper per cell and covered. The test units were placed on trays and put in a growth chamber at 25° C. and 60% relative humidity for 4 days.

[4] = test system: western flower thrip (Frankliniella occidentalis Pergande); settings: single compound, spray, 7 days
In short: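 Bean plants aged 5–7 days received a spray of test solution (10% acetone, 90% water, 300 ppm surfactant), in triplicate. Adult thrips (22–27 per unit) were introduced once the plants had dried for 1 h. Incubation lasted 7 days at 25° C and 45–55% RH.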

[5] = test system: silverleaf whitefly (Bemisia argentifolii Bellows and Perring); settings: Table 2B
In short: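 Whitefly-egg-infested 12–14-day-old cotton plants sprayed with compound in 10% acetone/90% water plus 300 ppm non-ionic surfactant, in triplicate. Plants then held 13 days at 28 °C and 50–70% relative humidity before mortality assessment.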

[6] = test system: corn planthopper (Peregrines maidis); settings: Corn Plant Hopper
In short: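 Contact/systemic test on corn planthopper: 10–20 nymphs (18- to 20-day-old) released onto young maize plants 1 h after spraying, with three replicate units per treatment. Spray solution was acetone/water 10:90 containing 300 ppm non-ionic spreader; units kept 6 days at 19-21° C., 50-70% RH.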

[7] = test system: cotton melon aphid (Aphis gossypii Glover)
In short: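 Sprays in acetone–water with 300 ppm non-ionic surfactant, at ppm concentrations, applied to aphid-infested (30–40 per plant) 6–7-day cotton, in triplicate. Evaluation after 6 days in a growth chamber at 19–21 °C and 50–70% relative humidity, covering contact and/or systemic action.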

Cc1ccc(/N=C/N(C)/C=N/c2ccc(C)cc2C)c(C)c1 [Amitraz]
mortality at 10 ppm ([1]; Empoasca fabae, rate 10 ppm, read-out: % mortality (obs)): 0%
mortality at 100 ppm ([1]; Empoasca fabae, rate 100 ppm, read-out: % mortality (obs)): 7%
mortality at 1000 ppm ([1]; Empoasca fabae, rate 1000 ppm, read-out: % mortality (obs)): 13%
mortality at 10 ppm ([2]; Myzus persicae, in Raphanus sativus, rate 10 ppm, read-out: % mortality (obs)): 16%
mortality at 100 ppm ([2]; Myzus persicae, in Raphanus sativus, rate 100 ppm, read-out: % mortality (obs)): 12%
mortality at 1000 ppm ([2]; Myzus persicae, in Raphanus sativus, rate 1000 ppm, read-out: % mortality (obs)): 34%
mortality at 10 ppm ([3]; Plutella xylostella, in Brassica oleracea, rate 10 ppm, read-out: % mortality (obs)): 70%
mortality at 100 ppm ([3]; Plutella xylostella, in Brassica oleracea, rate 100 ppm, read-out: % mortality (obs)): 20%
mortality at 1000 ppm ([3]; Plutella xylostella, in Brassica oleracea, rate 1000 ppm, read-out: % mortality (obs)): 50%
mortality at 10 ppm ([4]; Frankliniella occidentalis, 168 h, rate 10 ppm, read-out: % mortality (obs)): 40%
mortality at 100 ppm ([4]; Frankliniella occidentalis, 168 h, rate 100 ppm, read-out: % mortality (obs)): 30%
mortality at 1000 ppm ([4]; Frankliniella occidentalis, 168 h, rate 1000 ppm, read-out: % mortality (obs)): 20%
mortality at 500 ppm ([5]; Bemisia argentifolii, in Gossypium hirsutum, rate 500 ppm, read-out: % mortality (obs)): 5%
mortality at 1000 ppm ([5]; Bemisia argentifolii, in Gossypium hirsutum, rate 1000 ppm, read-out: % mortality (obs)): 0%
mortality at 2000 ppm ([5]; Bemisia argentifolii, in Gossypium hirsutum, rate 2000 ppm, read-out: % mortality (obs)): 0%
mortality at 5 ppm ([6]; rate 5 ppm, read-out: % mortality (obs)): 6%
mortality at 10 ppm ([6]; rate 10 ppm, read-out: % mortality (obs)): 3%
mortality at 50 ppm ([6]; rate 50 ppm, read-out: % mortality (obs)): 5%
mortality at 10 ppm ([7]; Aphis gossypii, rate 10 ppm, read-out: % mortality (obs)): 20%
mortality at 100 ppm ([7]; Aphis gossypii, rate 100 ppm, read-out: % mortality (obs)): 35%
mortality at 1000 ppm ([7]; Aphis gossypii, rate 1000 ppm, read-out: % mortality (obs)): 29%

N#CCNC(=O)c1cnccc1C(F)(F)F [Flonicamid]
% mortality (obs) ([1]; rate 100 ppm): 100%
% mortality (obs) ([1]; rate 400 ppm): 100%
% mortality (obs) ([1]; rate 1000 ppm): 40%
% mortality (obs) ([2]; rate 0.1 ppm): 16%
% mortality (obs) ([2]; rate 0.2 ppm): 10%
% mortality (obs) ([2]; rate 2 ppm): 33%
% mortality (obs) ([3]; rate 1 ppm): 0%
% mortality (obs) ([3]; rate 15 ppm): 60%
% mortality (obs) ([3]; rate 1000 ppm): 30%
% mortality (obs) ([4]; rate 10 ppm): 20%
% mortality (obs) ([4]; rate 100 ppm): 80%
% mortality (obs) ([4]; rate 1000 ppm): 70%
% mortality (obs) ([5]; rate 0.1 ppm): 2%
% mortality (obs) ([5]; rate 0.2 ppm): 2%
% mortality (obs) ([5]; rate 0.5 ppm): 2%
% mortality (obs) ([6]; rate 2 ppm): 52%
% mortality (obs) ([6]; rate 15 ppm): 42%
% mortality (obs) ([6]; rate 150 ppm): 90%
% mortality (obs) ([7]; rate 0.2 ppm): 9%
% mortality (obs) ([7]; rate 1 ppm): 46%
% mortality (obs) ([7]; rate 5 ppm): 92%

Dieldrin
% mortality (obs) ([1]; rate 2.5 ppm): 27%
% mortality (obs) ([1]; rate 5 ppm): 100%
% mortality (obs) ([1]; rate 10 ppm): 100%
% mortality (obs) ([2]; rate 10 ppm): 59%
% mortality (obs) ([2]; rate 100 ppm): 43%
% mortality (obs) ([2]; rate 1000 ppm): 41%
% mortality (obs) ([3]; rate 2 ppm): 90%
% mortality (obs) ([3]; rate 2.5 ppm): 100%
% mortality (obs) ([3]; rate 3 ppm): 100%
% mortality (obs) ([4]; rate 10 ppm): 10%
% mortality (obs) ([4]; rate 100 ppm): 20%
% mortality (obs) ([4]; rate 1000 ppm): 30%
% mortality (obs) ([5]; rate 10 ppm): 0%
% mortality (obs) ([5]; rate 100 ppm): 0%
% mortality (obs) ([5]; rate 1000 ppm): 0%
% mortality (obs) ([6]; rate 0.1 ppm): 37%
% mortality (obs) ([6]; rate 0.2 ppm): 57%
% mortality (obs) ([6]; rate 0.3 ppm): 71%
% mortality (obs) ([7]; rate 1 ppm): 13%
% mortality (obs) ([7]; rate 5 ppm): 26%
% mortality (obs) ([7]; rate 50 ppm): 66%

Pyridaben
% mortality (obs) ([1]; rate 1 ppm): 0%
% mortality (obs) ([1]; rate 2.5 ppm): 13%
% mortality (obs) ([1]; rate 10 ppm): 100%
% mortality (obs) ([2]; rate 1 ppm): 100%
% mortality (obs) ([2]; rate 10 ppm): 14%
% mortality (obs) ([2]; rate 60 ppm): 60%
% mortality (obs) ([3]; rate 100 ppm): 100%
% mortality (obs) ([3]; rate 150 ppm): 80%
% mortality (obs) ([3]; rate 200 ppm): 100%
% mortality (obs) ([4]; rate 10 ppm): 30%
% mortality (obs) ([4]; rate 80 ppm): 50%
% mortality (obs) ([4]; rate 200 ppm): 60%
% mortality (obs) ([5]; rate 20 ppm): 21%
% mortality (obs) ([5]; rate 30 ppm): 55%
% mortality (obs) ([5]; rate 50 ppm): 73%
% mortality (obs) ([6]; rate 2 ppm): 10%
% mortality (obs) ([6]; rate 2.5 ppm): 2%
% mortality (obs) ([6]; rate 3 ppm): 2%
% mortality (obs) ([7]; rate 1 ppm): 11%
% mortality (obs) ([7]; rate 2 ppm): 15%
% mortality (obs) ([7]; rate 10 ppm): 71%

Spinosad
% mortality (obs) ([1]; rate 30 ppm): 73%
% mortality (obs) ([1]; rate 100 ppm): 80%
% mortality (obs) ([1]; rate 110 ppm): 47%
% mortality (obs) ([2]; rate 10 ppm): 25%
% mortality (obs) ([2]; rate 100 ppm): 46%
% mortality (obs) ([2]; rate 1000 ppm): 59%
% mortality (obs) ([3]; rate 10 ppm): 100%
% mortality (obs) ([3]; rate 100 ppm): 90%
% mortality (obs) ([3]; rate 1000 ppm): 100%
% mortality (obs) ([4]; rate 0.1 ppm): 20%
% mortality (obs) ([4]; rate 0.5 ppm): 60%
% mortality (obs) ([4]; rate 3 ppm): 90%
% mortality (obs) ([5]; rate 100 ppm): 66%
% mortality (obs) ([5]; rate 150 ppm): 69%
% mortality (obs) ([5]; rate 300 ppm): 95%
% mortality (obs) ([6]; rate 5 ppm): 100%
% mortality (obs) ([6]; rate 10 ppm): 100%
% mortality (obs) ([6]; rate 20 ppm): 100%
% mortality (obs) ([7]; rate 10 ppm): 16%
% mortality (obs) ([7]; rate 100 ppm): 35%
% mortality (obs) ([7]; rate 1000 ppm): 30%

Thiamethoxam
% mortality (obs) ([1]; rate 0.1 ppm): 80%
% mortality (obs) ([1]; rate 0.2 ppm): 100%
% mortality (obs) ([1]; rate 0.4 ppm): 100%
% mortality (obs) ([2]; rate 0.2 ppm): 35%
% mortality (obs) ([2]; rate 0.4 ppm): 94%
% mortality (obs) ([2]; rate 0.6 ppm): 100%
% mortality (obs) ([3]; rate 30 ppm): 90%
% mortality (obs) ([3]; rate 40 ppm): 100%
% mortality (obs) ([3]; rate 50 ppm): 100%
% mortality (obs) ([4]; rate 5 ppm): 20%
% mortality (obs) ([4]; rate 50 ppm): 80%
% mortality (obs) ([4]; rate 250 ppm): 90%
% mortality (obs) ([5]; rate 5 ppm): 15%
% mortality (obs) ([5]; rate 15 ppm): 78%
% mortality (obs) ([5]; rate 30 ppm): 92%
% mortality (obs) ([6]; rate 0.2 ppm): 100%
% mortality (obs) ([6]; rate 0.4 ppm): 100%
% mortality (obs) ([6]; rate 0.6 ppm): 100%
% mortality (obs) ([7]; rate 0.2 ppm): 24%
% mortality (obs) ([7]; rate 0.4 ppm): 48%
% mortality (obs) ([7]; rate 0.6 ppm): 66%

Reference: patent US8937089B2, “Synergistic mixtures of anthranilamide invertebrate pest control agents” (priority 2004, dated 2015)
